Here are results for ten compounds from ChEMBL document CHEMBL1201862, “PubChem BioAssay data set” (2004).

Among the test systems are A549; COLO 205; HCC 2998; HCT-116; K562; KM12; MOLT-4; NCI-H522; OVCAR-5; OVCAR-8; RPMI-8226; SF-295; SK-MEL-2; SK-MEL-5; SNB-19; SNB-75; SW-620; UACC-257; UACC-62; UO-31.
Experiment in all cases: inhibition of tumour cell growth, NCI panel, 48 h

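Interpolation was linear, between the two tested concentrations surrounding the appropriate level; five concentrations were tested over 48 hours in 96-well plates. GI50: concentration for 50% inhibition of growth.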 Activity calls are given as the source filed them. Rule as the data show it: active = GI50 up to about 1.1 µM and inactive = higher.

For `CC(C)OP(=O)(OC(C)C)/C(I)=N/Nc1ccc([N+](=O)[O-])cc1`, the GI50 with A549, with COLO 205, in the assay with HCC 2998, in the assay with HCT-116, in the assay on K562 and in the assay on KM12 was > 100 µM (inactive) in each case. Moreover, the GI50 in the assay with MOLT-4, in the assay on NCI-H522, with OVCAR-5, with OVCAR-8, with RPMI-8226 and in the assay on SF-295 was > 100 µM (inactive) throughout. For the same compound, the GI50 in the assay with SK-MEL-2, with SK-MEL-5, in the assay on SNB-19, in the assay with SNB-75, in the assay on SW-620 and in the assay on UACC-257 was > 100 µM (inactive) throughout. The GI50 is > 100 µM (inactive) with UACC-62 and 98.4 µM (inactive) with UO-31.
Turning to `Cc1c2cnccc2c(C)c2c1c1ccccc1n2CCCCCCNCc1ccccc1`, the GI50 was 1.91 µM (inactive) with A549; 1.43 µM (inactive) in the assay on COLO 205; 1.88 µM (inactive) in the assay on HCC 2998; 0.649 µM (active) with HCT-116; 0.541 µM (active) in the assay on K562; 1.21 µM (inactive) with KM12. For the same compound, the GI50 is 0.167 µM (active) in the assay with MOLT-4; 2.15 µM (inactive) in the assay on NCI-H522; 1.75 µM (inactive) in the assay on OVCAR-5; 0.883 µM (active) in the assay on OVCAR-8; 0.766 µM (active) in the assay on RPMI-8226; 1.82 µM (inactive) in the assay on SF-295. Besides, the GI50 in the assay on SK-MEL-2 is 2.22 µM (inactive); in the assay with SK-MEL-5, 2.36 µM (inactive); in the assay on SNB-19 it was 1.88 µM (inactive); with SNB-75, 2.05 µM (inactive); in the assay with SW-620, 0.608 µM (active); in the assay with UACC-257 it was 1.96 µM (inactive). The GI50 was 2.32 µM (inactive) with UACC-62 and 1.99 µM (inactive) in the assay with UO-31.
As for `COc1ccc2c(c1)CC1Cc3ccccc3CCN1C2` (centres undefined), the GI50 in the assay on A549 is 28.8 µM (inactive); with COLO 205, 35.5 µM (inactive); in the assay on HCC 2998 it was 35.2 µM (inactive); in the assay with HCT-116, 40.1 µM (inactive); with K562, 56.2 µM (inactive); in the assay on KM12 it was 21.6 µM (inactive). In addition, the GI50 with MOLT-4 is 80.5 µM (inactive); with NCI-H522, 15.3 µM (inactive); in the assay with OVCAR-5, 22.6 µM (inactive); with OVCAR-8 it was > 100 µM (inactive); in the assay with RPMI-8226, 39.5 µM (inactive); in the assay with SF-295, 29.2 µM (inactive). The GI50 in the assay on SK-MEL-2 was 44 µM (inactive); in the assay on SK-MEL-5 it was 20.2 µM (inactive); in the assay with SNB-19 it was 55 µM (inactive); with SNB-75, > 100 µM (inactive); with SW-620 it was 76 µM (inactive); with UACC-257, 52.8 µM (inactive). Besides, the GI50 in the assay on UACC-62 was 55.1 µM (inactive); in the assay on UO-31 it was 37.2 µM (inactive).
In the case of `O=c1[nH]c2c(c3ccccc13)CCc1ccccc1-2`, the GI50 in the assay on A549, in the assay on COLO 205, in the assay with HCC 2998, in the assay on HCT-116, in the assay on K562 and with KM12 was > 100 µM (inactive) in each case. The GI50 with MOLT-4, with NCI-H522, in the assay with OVCAR-5, in the assay with OVCAR-8, with RPMI-8226 and in the assay with SF-295 was > 100 µM (inactive) throughout. The GI50 in the assay on SK-MEL-2, in the assay on SK-MEL-5, with SNB-19, with SNB-75, in the assay with SW-620 and in the assay on UACC-257 was > 100 µM (inactive) throughout. Also, the GI50 in the assay on UACC-62 is > 10 µM (inactive); with UO-31 it was > 100 µM (inactive).
`O=C(CCN(CCO)CCO)Nc1ccc2c(c1)C(=O)c1ccc(NC(=O)CCN(CCO)CCO)cc1C2=O`: the GI50 was 44.4 µM (inactive) in the assay with A549; 10.7 µM (inactive) in the assay with COLO 205; 1.51 µM (inactive) in the assay on HCC 2998; 7.36 µM (inactive) with HCT-116; 18.5 µM (inactive) with K562; 14.4 µM (inactive) in the assay on KM12. The GI50 in the assay on MOLT-4 was 13.8 µM (inactive); in the assay on NCI-H522 it was 5.89 µM (inactive); in the assay on OVCAR-5 it was > 100 µM (inactive); in the assay with OVCAR-8, 14 µM (inactive); with RPMI-8226 it was 14.6 µM (inactive); in the assay with SF-295, > 100 µM (inactive). In addition, the GI50 with SK-MEL-2 was 3.37 µM (inactive); in the assay on SK-MEL-5, 17.2 µM (inactive); in the assay on SNB-19 it was 22.5 µM (inactive); with SNB-75 it was 30.8 µM (inactive); with SW-620 it was 6.73 µM (inactive); with UACC-257, 24.1 µM (inactive). The GI50 is 3.44 µM (inactive) in the assay on UACC-62 and 10.4 µM (inactive) with UO-31.
In the case of `C=C(C(=O)C(=O)Oc1ccc(Cl)cc1)C(=O)c1ccc(C)cc1`, the GI50 in the assay with A549 was 78 µM (inactive); with COLO 205, > 100 µM (inactive); in the assay on HCC 2998, 26.5 µM (inactive); with HCT-116, 16.7 µM (inactive); in the assay with K562, 81.5 µM (inactive); with KM12 it was 21.5 µM (inactive). In addition, the GI50 is 58.3 µM (inactive) with MOLT-4; 17.9 µM (inactive) with NCI-H522; > 100 µM (inactive) in the assay on OVCAR-5; 55.3 µM (inactive) in the assay with OVCAR-8; 31.9 µM (inactive) in the assay with RPMI-8226; 76 µM (inactive) with SF-295. In addition, the GI50 was > 100 µM (inactive) in the assay on SK-MEL-2; 67.6 µM (inactive) with SK-MEL-5; 53.2 µM (inactive) in the assay with SNB-19; 39.2 µM (inactive) with SNB-75; 19.3 µM (inactive) with SW-620; 71.8 µM (inactive) with UACC-257. Also, the GI50 was 41.4 µM (inactive) with UACC-62 and 40.2 µM (inactive) with UO-31.
`COc1cc2c(cc1OC)-c1cc3ccccc3c(=O)n1CC2`: the GI50 with A549 was 11.4 µM (inactive); in the assay on COLO 205, 37.8 µM (inactive); in the assay on HCC 2998, 16.6 µM (inactive); in the assay on HCT-116, 10.4 µM (inactive); in the assay with K562, 26.1 µM (inactive); in the assay on KM12 it was 13.2 µM (inactive). Moreover, the GI50 with MOLT-4 is 26.1 µM (inactive); in the assay on NCI-H522 it was 16.1 µM (inactive); in the assay on OVCAR-5 it was 31.8 µM (inactive); with OVCAR-8, 29 µM (inactive); with RPMI-8226, 13.7 µM (inactive); with SF-295, 15.3 µM (inactive). In addition, the GI50 in the assay with SK-MEL-2 is 11.7 µM (inactive); in the assay with SK-MEL-5, 7.26 µM (inactive); in the assay with SNB-19 it was 43.7 µM (inactive); with SNB-75 it was 11.9 µM (inactive); with SW-620, 29.1 µM (inactive); in the assay on UACC-257, 40.8 µM (inactive). Also, the GI50 with UACC-62 is 18.2 µM (inactive); in the assay with UO-31, 19.9 µM (inactive).
Turning to `CC(=O)OCC1OC(n2c(-c3ccc(C)cc3)cc(-c3ccco3)c(C#N)c2=S)C(OC(C)=O)C(OC(C)=O)C1OC(C)=O` (centres undefined), the GI50 in the assay on A549 was 69.5 µM (inactive); with COLO 205, > 100 µM (inactive); in the assay with HCC 2998, > 100 µM (inactive); in the assay with HCT-116, 29 µM (inactive); with K562, > 100 µM (inactive); with KM12, > 100 µM (inactive). For the same compound, the GI50 in the assay with MOLT-4 is > 100 µM (inactive); with NCI-H522, 50.4 µM (inactive); in the assay with OVCAR-5, > 100 µM (inactive); with OVCAR-8, 25.8 µM (inactive); in the assay on RPMI-8226, > 100 µM (inactive); in the assay on SF-295, > 100 µM (inactive). In addition, the GI50 with SK-MEL-2 was 41.7 µM (inactive); with SK-MEL-5 it was 65.2 µM (inactive); in the assay with SNB-19, 32.5 µM (inactive); in the assay with SNB-75, 25.1 µM (inactive); in the assay with SW-620, > 100 µM (inactive); in the assay with UACC-257, > 100 µM (inactive). The results for the GI50 in the assay with UACC-62 and in the assay on UO-31 were 18.2 µM (inactive) and 28.9 µM (inactive), respectively.
In the case of `Nc1nc2ccc(Sc3ccc4nc(N)[nH]c(=O)c4c3)cc2c(=O)[nH]1`, the GI50 in the assay on A549, in the assay with COLO 205, with HCC 2998, with HCT-116, with K562 and in the assay on KM12 was > 100 µM (inactive) each time. Moreover, the GI50 with MOLT-4 is > 100 µM (inactive); in the assay on NCI-H522 it was > 100 µM (inactive); in the assay with OVCAR-5 it was > 100 µM (inactive); in the assay on OVCAR-8 it was > 100 µM (inactive); in the assay on RPMI-8226 it was > 100 µM (inactive); in the assay on SF-295, 59.2 µM (inactive). For the same compound, the GI50 in the assay on SK-MEL-2, with SK-MEL-5, with SNB-19, in the assay with SNB-75, with SW-620 and in the assay with UACC-257 was > 100 µM (inactive) in each case. For the same compound, the GI50 in the assay on UACC-62 and with UO-31 was > 100 µM (inactive) throughout.
Regarding `O=C(CC12C3C4C1C1C2C3C41CC(=O)NO)NO` (centres undefined), the GI50 with A549 was 37.8 µM (inactive); in the assay on COLO 205 it was 46.3 µM (inactive); with HCC 2998, > 100 µM (inactive); in the assay with HCT-116, 42.4 µM (inactive); in the assay with K562, 25.2 µM (inactive); in the assay on KM12, 38.8 µM (inactive). Besides, the GI50 with MOLT-4 was 45.8 µM (inactive); in the assay with NCI-H522, 27.7 µM (inactive); in the assay with OVCAR-5, > 100 µM (inactive); in the assay on OVCAR-8, 33.1 µM (inactive); in the assay with RPMI-8226, 40.3 µM (inactive); in the assay with SF-295 it was 27.1 µM (inactive). For the same compound, the GI50 in the assay with SK-MEL-2 is > 100 µM (inactive); in the assay with SK-MEL-5 it was 27.4 µM (inactive); in the assay with SNB-19, > 100 µM (inactive); with SNB-75 it was 29.6 µM (inactive); in the assay with SW-620 it was 38.9 µM (inactive); with UACC-257 it was 21.8 µM (inactive). Also, the GI50 in the assay on UACC-62 was 37.6 µM (inactive).
